Tests used:
BAC-1.2F5 cell line = experiment: Inhibition of M-CSF-dependent cell growth of macrophage-like cell line BAC-1.2F5 (MTS); assay type: cell-based, mouse; settings: 72 hr, M-CSF 50 ng/ml, FIG. 1
Description: Macrophage-like cell line BAC-1.2F5 which expresses c-fms as a M-CSF receptor on cell membranes (CLAUDIA M. et al., J. Cell. Physiol., 130, 420-427 (1987), “Isolation and Characterization of a Cloned Growth Factor Dependent Macrophage Cell Line, BAC1.2F5”) was cultured at 37° C. in a DMEM medium containing L-cell supernatant and 10% fetal calf serum (purchased from GIBCO BRL) in a 5% CO2 incubator until about 50 to 70% confluent. The harvested cells were inoculated into wells, each containing a 10% fetal calf serum-containing DMEM medium with human recombinant M-CSF being added thereto to a final concentration of 50 ng/ml, in a 96-well flat-bottom plate at a density of 5.0×10^3 per well, and cultured at 37° C. for 24 hr. A test compound dissolved in dimethyl sulfoxide was then added to each well to a target concentration, and cells were incubated at 37° C. in a 5% CO2 incubator for 72 hr. Thereafter, 20 μl of an MTS reagent (purchased from Promega) was added to each well, followed by incubation at 37° C. in a 5% CO2 incubator for 2 hr. Thereafter, absorbance at 490 nm was measured with a microplate reader. The cell growth rate with the addition of the test compound was determined by presuming the absorbance without the addition of the test compound and with the addition of M-CSF to be 100% cell growth and the absorbance without the addition of the test compound and M-CSF to be 0% cell growth. The concentration of the test compound was varied on several levels, and the cell growth rate in each case was calculated.

[1] = tested on: bone metastasis of A375 human melanoma cells; experiment: Nude mouse bone metastasis model using human melanoma cells (A375); assay type: in vivo, nude mice; settings: oral 40 mg/kg/day (20 mg twice a day), 28 days, p<0.01 vs. vehicle control, FIG. 3
Description: From the next day of the transplantation, for 28 days twice a day, the test compound was orally administered to the treatment group at 40 mg/kg/day, and the medium was orally administered to the control group. On 21 and 28 days after the transplantation, the mice were radiographed. For the images thus obtained, the bone resorption pore area in femora and fibiae attributable to bone metastasis of melanoma in each individual were calculated with an image analysis software (Image Gauge, FUJI FILM) to determine the average value for each group. The drug efficacy was evaluated by comparing the area of the test compound administered group with the area of the control group.

[2] = tested on: osteoclast differentiation; experiment: Osteoclast differentiation-inducing test by cocultivation of mouse bone marrow cells and osteoblast-like cell line KS483 (TRAP activity); assay type: cell-based; settings: 6 days coculture with 1,25(OH)2VD3, FIG. 2
Description: Mouse osteoblast-like cell line KS483 ([…] T. et al., Bone, 19, 429-436 (1996), “Subcloning of Three Osteoblastic Cell with Distinct Differentiation Phenotypes from the Mouse Osteoblastic Cell line KS-4”) was cultured in an α-MEM medium containing a 10% fetal calf serum (purchased from GIBCO BRL) until about 90% confluent. The cells were seeded into wells, each containing the same medium containing a 10% fetal calf serum, in a 48 well flat-bottom plate at a density of 2.0×10^3 per well. […] At the same time, the TRAP activity was evaluated by the measurement of enzyme activity using p-nitrophenylphosphate (SIGMA104 phosphatase substrate; SIGMA; hereinafter referred to as “PNP”). […] After stirring, 50 μl of 0.5 N NaOH was further added, and 100 μl of the reaction solution in each well was dispensed in a 96 well flat-bottom plate, and absorbance at 405 nm was then measured with a microplate reader. For each well, TRAP activity was measured by presuming the absorbance in the case of culture without the addition of the test compound and with the addition of only KS483 and mouse bone marrow cells in the presence of 1,25(OH)2VD3 to 100% TRAP activity and the absorbance without the addition of the test compound and the mouse bone marrow cells to 0% TRAP activity. […]

| Structure (SMILES) | inhibition of M-CSF-dependent cell growth of BAC-1.2F5 (BAC-1.2F5 cell line) | inhibition of expansion of bone resorption area involved in bone metastasis of melanoma [1] | inhibition of osteoclast differentiation (TRAP activity) [2] |
| --- | --- | --- | --- |
| COc1cc(Oc2ccnc3cc(OC)c(OC)cc23)ccc1NC(=O)N[C@@H](C)c1ccc(F)cc1 [Example 17, N-{4-[(6,7-Dimethoxy-4-quinolyl)oxy]-2-methoxyphenyl}-N′-[(1S)-1-(4-fluorophenyl)ethyl]urea] | concentration-dependent inhibition |  |  |
| COc1cc(Oc2ccnc3cc(OC)c(OC)cc23)ccc1NC(=O)N[C@H](C)c1ccc(F)cc1 [Example 18, N-{4-[(6,7-Dimethoxy-4-quinolyl)oxy]-2-methoxyphenyl}-N′-[(1R)-1-(4-fluorophenyl)ethyl]urea] | concentration-dependent inhibition |  |  |
| COc1cc(Oc2ccnc3cc(OC)c(OC)cc23)ccc1NC(=O)NC(C)c1nccs1 (centres unmarked) [Example 74, N-{4-[(6,7-Dimethoxy-4-quinolyl)oxy]-2-methoxyphenyl}-N′-[1-(1,3-thiazol-2-yl)ethyl]urea] | concentration-dependent inhibition | inhibiting the expansion of bone resorption area | concentration-dependent inhibition |

Reference: patent US7598258B2, “Quinoline derivatives and quinazoline derivatives inhibiting autophosphorylation of macrophage colony stimulating factor receptor” (Kirin Beer Kabushiki Kaisha, priority 2002, dated 2009)
